According to PubChem BioAssay AID179 (DTP/NCI, 2004):
Calls of active or inactive are those of the source.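 The calls were made as follows: active = compounds giving half or more protection of infected cells from virus-caused growth loss, again on retest; inactive = the rest.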

Test system: CEM cells HIV-1 protection, formazan growth assay
Test: NCI AIDS Antiviral Assay
Details: for IC50: measured here: growth of uninfected CEM cells
Procedure, shortened: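 Soluble formazan readout of cell growth; CEM cells ± HIV-1; 5 drug concs. ≥50% protection → retest; ≥50% again = moderately active; reproducible 100% = confirmed active.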

Row | Compound | EC50 [µM] | IC50 [µM] | outcome
1 | OCCN1CSC(=S)NCCNC(=S)SC1 | > 63.1 | > 63.1 | 
2 | C[C@]12CC(O)C3[C@@H](CC=C4CC(O)CC[C@@]43C)C1CCC2O (stereo not given in full) |  |  | inactive
3 | N#Cc1sc2c(c1OC(=O)c1ccco1)c(=O)n(-c1ccccc1)c(=S)n2-c1ccccc1 | > 200 | 12.3 | 
4 | O=C(/C(=C/c1ccccc1Cl)c1ccccc1)c1ccccc1 | > 8.51 | > 8.51 | 
5 | CC(=O)OC(C)(C)/C=C/C(=O)[C@](C)(O)[C@H]1[C@H](O)C[C@@]2(C)[C@@H]3CC=C4[C@@H](C=C(OC5OC(CO)C(O)C(O)C5O)C(=O)C4(C)C)[C@]3(C)C(=O)C[C@]12C (stereo not given in full) | > 200 | 9.77 | 
6 | CC(C)c1cccc(C(C)C)c1NC(=O)C(=O)C(C(=O)c1ccc2ccccc2c1)C1OC(=O)c2ccccc21 (stereo not given) | > 67.6 | 34.7 | 
7 | COc1ccc(-c2oc(C=Nc3ccccc3)c([N+](=O)[O-])c2-c2ccc(OC)c(OC)c2)cc1OC | > 45.7 | > 45.7 | 
8 | CC1=CCC(C(C)(C)NC(=O)c2ccccc2)C/C1=N/O (stereo not given) | > 91.2 | > 91.2 | 
9 | O=C(O)c1c(-c2ccccc2)nn2c1ccc1ccccc12 | > 200 | > 100 | 
10 | O=S1(=O)Cc2nc3ccccc3n2C1c1c(F)cccc1F (stereo not given) | 29.5 | 75.9 | 
11 | CC12CCC(O)CC1=CCC1C2CCC2(C)C3=NN=CC3CC12 (stereo not given) | > 200 | 12 | 
12 | CC(=O)NC1C(=O)N(c2ccccc2)C1c1ccccc1 (stereo not given) | > 178 | > 178 | 
13 | Nc1cccc(C(CC(=O)O)CC(=O)O)c1 | > 200 | > 200 | 
14 | Nc1ccccc1C1=Nc2cncnc2NC1 | > 417 | 295 | 
15 | CC(C)CC(=O)NC(Nc1ccc(S(=O)(=O)Nc2ncccn2)cc1)(C(F)(F)F)C(F)(F)F | > 200 | > 200 | 
16 | CC(C)c1cccc(C(C)C)c1NC(=O)C(=O)CC(=O)CC(c1ccccc1)c1c(O)c2ccccc2oc1=O (stereo not given) | > 468 | 229 | 
17 | CCN(CC)CCN1C(=O)CN=C(c2ccccn2)c2cc(Cl)ccc21 | > 447 | 240 | 
18 | O=C(Cc1nc2ccc(C(=O)c3ccccc3)cc2[nH]c1=O)C(=O)Nc1ccccc1[N+](=O)[O-] | > 79.4 | 51.3 | 
19 | O=C1COCC(=O)N1 | > 2190 | > 2190 | 
20 | CC(C)(C)C(=O)/C=C/c1ccc(Oc2ccccc2)cc1 | > 25.7 | > 25.7 | 
21 | NC(Cc1ccccc1)C(=O)OCN1C(=O)C2C3C=CC(C2C1=O)C1C2C(=O)N(COC(=O)C(N)Cc4ccccc4)C(=O)C2C31 (stereo not given) | > 200 | 31.6 | 
22 | C=C1C(=O)O[C@H]2C3C(=C(C)CC[C@@H]12)C(=O)[C@@H]1OC31C (stereo not given in full) | > 200 | 0.676 | 
23 | NNC(=O)CCC(NS(=O)(=O)c1ccc(Cl)cc1)C(=O)NN (stereo not given) | > 200 | 145 | 

Row | Compound | EC50 [µM] | IC50 [µM] | outcome
24 | Cc1nc2ccccc2c(=O)n1-c1ccccc1Br | > 214 | > 214 | 
25 | O=c1oc2cc(O)ccc2c(O)c1C(c1ccc(/C=C/c2ccccc2)cc1)c1c(O)c2ccc(O)cc2oc1=O | > 200 | 74.1 | 
26 | O=c1[nH]c2ccccc2nc1/C=C/NC(=S)NCc1ccccc1 |  |  | inactive
27 | COc1ccc(C[C@@H]2Cc3cc(OC)c(OC)cc3CN2C)cc1 | > 692 | 45.7 | 
28 | CC1=NC(=O)CC2=C1C(C)N(Cc1ccccc1)C2=O (stereo not given) | > 355 | > 355 | 
29 | NC(=O)C(=CN1C(=O)/C(=C\c2cccc(O)c2)SC1=S)C(N)=O | > 200 | 107 | 
30 | NCCCN(CCCCN(CCCN)Cc1ccccc1)Cc1ccccc1 | 64.6 | 70.8 | 
31 | CCOC(=O)C1(C#N)C(C#N)(C#N)C12CCCCC2 (stereo not given) (tested in a mixture with another compound) | > 200 | 6.03 | 
32 | S=c1sc2c(n1-c1ccccc1)NC=NC2S (stereo not given) | > 468 | 22.9 | 
33 | Cc1[nH]c2cc([N+](=O)[O-])ccc2c1[N+](=O)[O-] |  |  | inactive
34 | [N-]=[N+]=CC(=O)OC1CCOCC1 | > 200 | > 200 | 
35 | Cc1cccc(N(C=O)c2c(O)nc(N)[nH]c2=O)c1 | > 200 | > 200 | 
36 | N#CC(C(=N/O)/C(=N/O)C(C#N)c1ccc(Cl)cc1)c1ccc(Cl)cc1 (stereo not given) | > 468 | 178 | 
37 | NCC=C1C2CC3CC(C2)CC1C3 |  |  | inactive
38 | CC(C)=CCN(N=O)c1ncnc2nc[nH]c12 | > 200 | > 200 | 
39 | Nc1nc2nc3c(nc2c(=O)[nH]1)CN(C1CCCCC1)C3=O | > 74.1 | > 74.1 | 
40 | CCOC(=O)NC(=S)NC(C)c1ccccc1 (stereo not given) | > 200 | 115 | 
41 | O=C(CCCC[n+]1ccccc1)Sc1ccccc1C(=O)Nc1ccc(S(=O)(=O)NC(=O)c2ccccc2)cc1 | 18.2 | 61.7 | 
42 | CP1(=O)CC(=O)CCCCC(=O)C1 |  |  | inactive
43 | CC(=O)ON1C(=O)c2cccc3cccc(c23)C1=O | > 200 | 18.6 | 
44 | COc1ccc(N2C(=O)/C(=C\c3cccc(Oc4ccccc4)c3)SC2c2ccccc2)cc1 (stereo not given) | > 200 | 8.51 | 
45 | CC(C)(C)C(=O)OCOP(=O)(OCCOCn1cnc2c(=O)[nH]c(N)nc21)OCOC(=O)C(C)(C)C |  |  | inactive
46 | O=C(O)C1C=CC(c2ccc(Cl)cc2)=N1 (stereo not given) | > 200 | > 200 | 

Row | Compound | EC50 [µM] | IC50 [µM] | outcome
47 | C[C@@H](COCP(=O)(O)O)n1cnc2c(N)ncnc21 | > 200 | > 200 | 
48 | C[n+]1c2cc(N)ccc2cc2ccc(N)cc21 (tested in a mixture with another compound) | > 200 | 0.316 | 
49 | Cn1c(=O)c2nc(NCCO)cnc2n(C)c1=O | > 200 | 85.1 | 
50 | c1ccc(-c2cn3c(nc4ccccc43)c(-c3ccccc3)n2)cc1 | > 200 | 132 | 
51 | O=C(N/N=C/c1ccc(O)cc1)c1ccc(OCc2nc3ccccc3[nH]2)cc1 | > 200 | > 200 | 
52 | Cc1cc(N(CCC#N)CCC#N)ccc1/C=C1N=C(/C=C\c2ccccc2)N(c2ccc(C(=O)O)cc2)C\1=O | > 13.5 | > 13.5 | 
53 | O=S(=O)(c1ccccc1)C1(Sc2ccccc2)CC=CC1 | > 81.3 | 51.3 | 
54 | CCCCCCNCCc1cnc[nH]1 | > 200 | > 200 | 
55 | COc1ccccc1CNCCCCCCNCCSSCCNCCCCCCNCc1ccccc1OC | > 200 | 57.5 | 
56 | O=C1C(=O)N(C23CC4CC(CC(C4)C2)C3)C(=S)N1c1ccccc1 | > 200 | 110 | 
57 | O=C(Nc1nc(C23CC4CC(CC(C4)C2)C3)cs1)c1cc2ccccc2oc1=O | > 200 | > 200 | 
58 | O=C1OC(c2ccccc2)=N/C1=C/C=C/c1ccco1 |  |  | inactive
59 | COc1ccc2c(c1)N(C)CCCC2=O | > 200 | 151 | 
60 | C#CCN(Cc1ccc2nc(-c3ccccc3)c(Cl)nc2c1)c1ccc(Cl)c(Cl)c1 | > 200 | > 200 | 
61 | CC(=O)N1N=C(c2ccc3ccccc3c2O)CC1c1cccs1 (stereo not given) | > 200 | 12 | 
62 | CC(=O)C(N=Nc1nc2ccc(Cl)cc2[nH]1)C(C)=O | > 200 | 28.8 | 
63 | COC1/C=C/OC2(C)Oc3c(C)c(O)c4c(O)c(cc(OCC(=O)N(C)C5CCCCC5)c4c3C2=O)NC(=O)/C(C)=C/C=C/C(C)C(O)C(C)C(O)C(C)C(OC(C)=O)C1C (stereo not given) | > 200 | 12.3 | 
64 | COP(=O)(OC)/C(=C/c1c[nH]c2ccccc12)C(=O)O | > 200 | > 200 | 
65 | CN1C(=Nc2ccccc2)SC1=Nc1ccccc1 |  |  | inactive
66 | Cc1ccsc1/C=N/Nc1ccc2ccccc2n1 | > 200 | 18.6 | 
67 | O=C1C(=Cc2ccc(O)cc2)N=C(c2ccccc2)N1n1c(-c2ccccc2)nc2ccccc2c1=O | > 200 | 77.6 | 
68 | N[C@@H](CCC(=O)NC(Cc1ccccc1)C(=O)NCP(=O)(O)O)C(=O)O (stereo not given in full) | > 200 | > 200 | 
69 | O=c1c2cccnc2[nH]c2ccc3scnc3c12 | > 200 | > 200 | 

Row | Compound | EC50 [µM] | IC50 [µM] | outcome
70 | CCCOC1OC(CS(=O)(=O)O)C(OC(C)=O)C(OC(C)=O)C1OC(C)=O (stereo not given) |  |  | inactive
71 | Cc1cc(=O)oc2cc3c(cc12)Oc1ccccc1O3 | > 25.7 | > 25.7 | 
72 | O=C(O)CCSC(=O)Nc1ccccc1 |  |  | inactive
73 | Cc1cccc(Nc2cn(COCc3ccccc3)c(=O)[nH]c2=O)c1 | > 200 | 81.3 | 
74 | CCS(=O)(=O)CCn1cnc2c1c(=O)n(C)c(=O)n2C | > 200 | > 200 | 
75 | O=C(O)c1cc(Cc2cc(C(=O)O)c(O)c(C(=O)c3ccc(O)c(C(=O)O)c3)c2)ccc1O | 537 | 832 | 
76 | O=C1NC(=O)C(=Cc2ccccc2)C(=O)N1 | > 166 | > 166 | 
77 | NC1CC(=O)c2cc(Br)sc21 (stereo not given) | > 200 | > 200 | 
78 | CN1CCN(C)C12C=CC=CC21CC1 |  |  | inactive
79 | O=c1[nH]cnc2c1ncn2Cc1ccccc1CCO | > 93.3 | > 93.3 | 
80 | C=CCNC(=S)/N=C/C(C(=O)Nc1ccccc1)=C(/C)O | > 200 | > 200 | 
81 | O=C(O)c1ccccc1C(=O)OCC1CCCN2CCCCC12 (stereo not given) | > 151 | > 151 | 
82 | O=C1CCCC2=C1CC1=C(CCCC1=O)N2c1ccc(-c2ccccc2)cc1 |  |  | inactive
83 | O=C(NCO)NCOCn1c(=O)n(CO)c(=O)n(CO)c1=O | > 407 | 70.8 | 
84 | CN1C(c2ccccc2)=C(C#N)C(=O)CC(c2cccs2)N1C (stereo not given) | > 200 | 191 | 
85 | COC(=O)C(Cc1nc2ccccc2nc1C)/C(=N\NC(N)=O)C(=O)Nc1cccc([N+](=O)[O-])c1 (stereo not given) | > 15.1 | > 15.1 | 
86 | COc1ccc(/C=N/NS(=O)(=O)c2ccc(/C=C3\NC(=O)NC3=O)cc2)cc1 | > 200 | > 200 | 
87 | O=C(Nc1ccccn1)NC1CCCCC1 | > 200 | 195 | 
88 | [Cu+2].[O-]/C(=N\N=C\c1ccccn1)c1ccccc1O.[O-]/C(=N\N=C\c1ccccn1)c1ccccc1O | > 200 | 10.2 | 
89 | CCCCCCOP(OCCCCCC)OCCCCCC |  |  | inactive
